The record followed here is US20240158385A1, “NOVEL COMPOUNDS” (Cerevance, Inc., priority 2021, published 2024).

SMILES strings stand for the structures. Read-outs that look alike come from different tables or passages of the source. A value given as a limit tells only on which side of the number the result lay.

The test system of test [1] is IL-1β, mouse primary microglia. The test is described as follows: Inflammasome assay in primary mouse postnatal microglia using LPS/0 mM extracellular K+ (IL-1β levels). The test is classed as cell-based. The following applies: 100 ng/mL LPS 3.5 hours, compound 30 minutes, then K+ free buffer 2 hours, IL-1β by MesoScale Discovery. On the procedure: Newly shaken mouse microglia cells were added to a 96-well plate and left to adhere overnight. After this time, 100 ng/mL LPS was added to each well and incubated at 37° C. for 3.5 hours, at which point compound addition was undertaken and plates incubated at 37° C. for an additional 30 minutes. After this time, the medium in each well was removed and replaced with K^+ free buffer and the plates then incubated for an additional 2 hours at 37° C. Measurement of IL-1βlevels in the sample wells was undertaken using MesoScale Discovery™ MESO QuickPlex SQ 120 and […] from mouse IL-1β DuoSet ELISA kit (R&D System, DY401).

In the next test the target is T1, human KCNK13 (Homo sapiens, UniProt Q9HB14).
T1 construct: expressed in transfected cells
T1 sequence (Q9HB14 1-408): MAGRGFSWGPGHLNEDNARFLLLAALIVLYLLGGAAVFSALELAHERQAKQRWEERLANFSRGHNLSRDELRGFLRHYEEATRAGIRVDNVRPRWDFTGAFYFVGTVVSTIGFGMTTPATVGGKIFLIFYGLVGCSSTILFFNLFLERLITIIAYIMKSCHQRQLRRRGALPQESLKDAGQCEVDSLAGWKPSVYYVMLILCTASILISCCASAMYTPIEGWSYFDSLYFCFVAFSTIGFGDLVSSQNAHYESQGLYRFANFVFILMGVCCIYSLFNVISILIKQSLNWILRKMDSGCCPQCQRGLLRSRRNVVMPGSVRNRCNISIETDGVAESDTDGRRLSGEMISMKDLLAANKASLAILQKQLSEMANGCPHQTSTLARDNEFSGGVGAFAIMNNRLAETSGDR
Briefly: KCNK13 antagonist activity, thallium (Tl+) flux FLIPR assay. Type of test: cell-based. The procedure, abridged:
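HEK 293 cells stably expressing human KCNK13 loaded with Tl+-sensitive dye for 1 h at room temperature. Compounds (10-point half-log curves) preincubated 15 min before thallium sulfate stimulus, fluorescence tracked by FLIPR. IC50 from ten-point curves, each point the mean of two wells.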

Setting [2] is: HEK 293 cells stably expressing human KCNK13, Tl+ sensitive dye, FLIPR, compounds 15 minutes prior to thallium sulfate, 10 point half log curves from 10 PM, read-out: hKCNK13 IC50.

Usually IC50 stands for the point on the concentration scale where inhibition reaches its midpoint.

For `Nc1nonc1-c1nc2ccccc2n1Cc1cncnc1` [Example 21, 4-[1-(pyrimidin-5-ylmethyl)benzimidazol-2-yl]-1,2,5-oxadiazol-3-amine], the IC50 in test [1] is no more than 100 nM; at human KCNK13 it was less than 50 nM.

For the compound `Cc1nonc1-c1nc2cccc(F)c2n1Cc1cncnc1` [Example 49, 3-[7-fluoro-1-(pyrimidin-5-ylmethyl)benzimidazol-2-yl]-4-methyl-1,2,5-oxadiazole], the results for the IC50 (in test [1]; on human KCNK13 (setting [2])) were no more than 50 nM and less than 100 nM, respectively.

Consider `Nc1nonc1-c1nc2cccc(F)c2n1Cc1ccncc1` (single isomer, unassigned) [Example 120, 4-[7-fluoro-1-(pyridin-4-ylmethyl)benzimidazol-2-yl]-1,2,5-oxadiazol-3-amine], for which the IC50 in test [1] is no more than 50 nM; at human KCNK13 (setting [2]), less than 50 nM.

Turning to `Nc1nonc1-c1nc2ccccc2n1Cc1ccncc1` [Example 71, 4-[1-(pyridin-4-ylmethyl)benzimidazol-2-yl]-1,2,5-oxadiazol-3-amine], the IC50 is no more than 200 nM in test [1] and less than 100 nM on human KCNK13 (setting [2]).

For `Nc1nonc1-c1nc2cccc(F)c2n1Cc1cnccn1` [Example 32, 4-[7-fluoro-1-(pyrazin-2-ylmethyl)benzimidazol-2-yl]-1,2,5-oxadiazol-3-amine], the IC50 in test [1] was no more than 200 nM; at human KCNK13 (setting [2]), less than 50 nM.

On to `Cc1nonc1-c1nc2ccccc2n1Cc1cncnc1` [Example 57, 3-methyl-4-[1-(pyrimidin-5-ylmethyl)benzimidazol-2-yl]-1,2,5-oxadiazole], for which the IC50 in test [1] is no more than 200 nM; on human KCNK13 (setting [2]), less than 100 nM.

As for `Nc1nonc1-c1nc2cccc(F)c2n1Cc1cccnc1` (single isomer, unassigned) [Example 86, 4-[7-fluoro-1-(pyridin-3-ylmethyl)benzimidazol-2-yl]-1,2,5-oxadiazol-3-amine], the IC50 in test [1] was no more than 50 nM; on human KCNK13 (setting [2]), less than 50 nM.

Turning to `Cc1nonc1-c1nc2ccncc2n1Cc1cccnc1` [Example 110, 3-methyl-4-[3-(pyridin-3-ylmethyl)imidazo[4,5-c]pyridin-2-yl]-1,2,5-oxadiazole], the 50% inhibitory concentration (IC50) at human KCNK13 (setting [2]) was less than 500 nM.

Take `Cc1nonc1-c1nc2c(F)cccc2n1Cc1ccc(S(C)(=O)=O)nc1` (single isomer, unassigned) [Example 138, 3-(4-fluoro-1-((6-(methylsulfonyl)pyridin-3-yl)methyl)-benzimidazol-2-yl)-4-methyl-1,2,5-oxadiazole]: the IC50 on human KCNK13 (setting [2]) was less than 1000 nM.

In the case of `Cc1nonc1-c1nc2c(Cl)cccc2n1Cc1ccc(C#N)nc1` (single isomer, unassigned) [Example 61, 5-[[4-chloro-2-(4-methyl-1,2,5-oxadiazol-3-yl)benzimidazol-1-yl]methyl]pyridine-2-carbonitrile], the IC50 on human KCNK13 (setting [2]) is less than 200 nM.
